Laboratory results published in patent US20090131354A1, “miR-126 REGULATED GENES AND PATHWAYS AS TARGETS FOR THERAPEUTIC INTERVENTION” (priority 2007, published 2009).

Legend:
H520 lung cancer cells = assay: Alamar Blue proliferation assay, H520; type: cell-based, human
Description: The inventors assessed the therapeutic effect of hsa-miR-126 for lung cancer by using 11 individual lung cancer cell lines. To measure cellular proliferation of lung cancer cells, the following non-small cell lung cancer (NSCLC) cells were used: cells derived from lung adenocarcinoma (A549, H1299, H522, H838, Calu-3, HCC827, HCC2935), cells derived from lung squamous cell carcinoma (H520, H226), cells derived from lung bronchioalveolar carcinoma (H1650), and cells derived from lung large cell carcinoma (H460). Synthetic hsa-miR-126 (Pre-miR™-hsa-miR-126, Ambion cat. no. AM17100) or negative control (NC) miRNA (Pre-miR™ microRNA Precursor Molecule-Negative Control #2; Ambion cat. no. AM17111) was delivered via lipid-based transfection into A549, H1299, H522, H838, Calu-3, HCC827, HCC2935, H520, H1650, and H460 cells, and via electroporation into H226 cells.
Lipid-based reverse transfections were carried out in triplicate according to a published protocol (Ovcharenko et al., 2005) and the following parameters: Cells (5,000-12,000 per 96 well), 0.1-0.2 μl Lipofectamine™ 2000 (cat. no. 11668-019, Invitrogen Corp., Carlsbad, Calif., USA) in 20 μl OptiMEM (Invitrogen), 30 nM final concentration of miRNA in 100 μl. Electroporation of H226 cells was carried out using the BioRad Gene Pulser Xcell™ instrument (BioRad Laboratories Inc., Hercules, Calif., USA) with the following settings: 5×10^6 cells with 5 μg miRNA in 200 μl OptiMEM (1.6 μM miRNA), square wave pulse at 250 V for 5 ms. Electroporated H226 cells were seeded at 7,000 cells per 96-well in a total volume of 100 μl. All cells except for Calu-3 cells were harvested 72 hours post transfection or electroporation for assessment of cellular proliferation. Calu-3 cells were harvested 10 days post transfection. Proliferation assays were performed using Alamar Blue (Invitrogen) following the manufacturer's instructions. As a control for inhibition of cellular proliferation, siRNA against the motor protein kinesin 11, also known as Eg5, was used. […]

[1] = tested on: PC3 prostate cancer cells; assay: Long-term growth curve with repeated electroporation, PC3; type: cell-based, human
Description: To evaluate the therapeutic activity of hsa-miR-126 over an extended period of time, we conducted growth curve experiments in the presence of miRNA for up to 21 days. Since in vitro transfections of naked interfering RNAs, such as synthetic miRNA, are transient by nature and compromised by the dilution of the oligonucleotide during ongoing cell divisions, we administered miRNA at multiple time points (Bartlett and Davis, 2006; Bartlett and Davis, 2007). To accommodate miRNA delivery into a large quantity of cells, we employed the electroporation method to delivery hsa-miR-126 or negative control miRNA into PPC-1, PC3 and Du145 human prostate cancer cells. Briefly, 1×10^6 PPC-1 or PC3 cells, and 0.5×10^6 Du145 cells were electroporated with 1.6 μM hsa-miR-126 or negative control using the BioRad Gene Pulser Xcell™ instrument (BioRad Laboratories Inc., Hercules, Calif., USA), seeded and propagated in regular growth medium. Experiments with PC3 and Du145 cells were carried out in triplicates. When the control cells reached confluence (days 4 and 11 for PPC-1; days 7 and 14 for PC3 and Du145), cells were harvested, counted and electroporated again with the respective miRNAs. […] The population doubling was calculated from these electroporation events using the formula PD=ln(Nf/N0)/ln2, and cell counts were extrapolated and plotted on a linear scale (FIGS. 10-12). […]

Compound	% proliferation (H520 lung cancer cells; H520, 30 nM, 72 h, relative to NC miRNA (100%)) [%]	inhibition of cell growth ([1]; PC3, day 21, 1.6 μM repeated electroporation, relative to control cells (100%)) [%]	remaining cells ([1]; PC3, day 21, relative to control cells (100%)) [%]	% proliferation (H520 lung cancer cells; H520, 50 μM, relative to NC miRNA (100%)) [%]	% proliferation (H520 lung cancer cells; H520, relative to NC miRNA (100%)) [%]
hsa-miR-126 (UCGUACCGUGAGUAAUAAUGC; synthetic pre-miR form, further chemistry not given here) [Synthetic hsa-miR-126 (Pre-miR™-hsa-miR-126, Ambion cat. no. AM17100)]	80.99	90.7	9.3		
COc1cc([C@@H]2c3cc4c(cc3[C@@H](O[C@@H]3O[C@@H]5CO[C@@H](C)O[C@H]5[C@H](O)[C@H]3O)[C@H]3COC(=O)[C@H]23)OCO4)cc(OC)c1O [etoposide]				48.53	66.80
